Experimental data as given in patent publication US8187822B2, “Methods to identify modulators” (Givaudan S.A., priority 2007, dated 2012).

Target: T1, TAS2R46 (Homo sapiens, UniProt P59540)
T1 construct: The full length gene of human TAS2R44 was amplified by polymerase chain reaction (PCR) using gene-specific primers that span the entire coding region; RSS tag (first 45 amino acids of rat somatostatin receptor subtype 3) (N); expressed in transfected cells; host or cells: HEK293T/Gα16-gustducin 44 cells, transient transfection
T1 sequence (P59540 1-309): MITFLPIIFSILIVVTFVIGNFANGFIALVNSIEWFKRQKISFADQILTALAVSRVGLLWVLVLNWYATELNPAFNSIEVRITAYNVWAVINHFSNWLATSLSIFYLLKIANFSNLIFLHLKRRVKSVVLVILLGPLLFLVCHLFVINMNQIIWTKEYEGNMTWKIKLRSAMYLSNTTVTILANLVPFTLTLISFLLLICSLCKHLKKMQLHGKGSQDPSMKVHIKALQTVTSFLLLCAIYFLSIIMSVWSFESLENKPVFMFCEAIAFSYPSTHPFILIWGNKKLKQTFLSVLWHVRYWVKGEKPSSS
Test: Fluo-4 calcium assay, HEK293T/Gα16-gustducin44 cells transiently expressing TAS2R46
Assay type: cell-based
Protocol: On day 0, the HEK293T/Gα16-gustducin 44 cells are plated in 96-well black wall, clear-bottom plates at a density of 14,000 cells per well and grown overnight in growth media (DMEM with 10% (v/v) heat-inactivated fetal bovine serum, 2 mM L-glutamine, 100 units/ml penicillin, 100 μg/ml streptomycin).
On day 1, the media is changed to an antibiotic-free and serum-free DMEM.
The cells are transfected with Lipofectamine 2000 (Invitorgen) according to the manufacturers recommendations.
Per well of a 96-well plate, 150 ng of vector DNA (SABTR expression vectors or TAS2R16 expression vector from example 1) is diluted in 12.5 μl of DMEM. In a second tube, 0.3 μl of Lipofectamine 2000 is diluted in 12.5 μl of DMEM and incubated for 5 min at room temperature. After the 5 min, both solutions are mixed and incubated for 20 min at RT. The growth medium in the plate is exchanged by 50 μl of DMEM and 25 μl of the lipofectamine/DNA mixture is incubated on the cells for 3-4 hours at 37° in a humidified atmosphere. This mixture is then replaced with an antibiotic-free, serum-containing DMEM.
24 hours post transfection, the cells are used in the Fluo-4 Calcium Assay described in Example 3.
At day 0, the HEK293T cell line expressing Gα16-gustducin44 and a TAS2R bitter taste receptor formed as described in examples 2b or 2c was seeded in antibiotic-free growth medium (standard DMEM with 10% (v/v) heat-inactivated fetal bovine serum, 2 mM L-glutamine[…]) into black wall/clear bottom 96-well plates, coated with poly(ethylenimine) (0.005% v/v) at a concentration of 15,000 cells per well and incubated for 48 hours in humidified atmosphere (37° C., 5% CO2).
At the time of the assay, the growth medium was discarded and the cells were in humidified atmosphere (37° C., 5% CO2) for 1 hour with 50 μl of loading buffer consisting of 1.5 μM Fluo-4 AM and […] probenicid (Sigma-Aldrich, St. Louis, Mo., US) in DMEM.
Afterwards, the 96-well plate was washed 5 times with 100 μl of assay buffer (130 mM NaCl, 5 mM KCl, 10 mM HEPES, 2 mM CaCl2, and 5 mM dextrose, pH 7.4) per well, using an automated plate washer (BioTek). The plate was further incubated for 30 minutes at room temperature in the dark to allow for complete de-esterification of the Fluo-4. Afterwards the plate was washed 5 times with 100 μl of assay buffer per well, and reconstituted with 100 μl of assay buffer per well.
For assay reading, the plate was placed in a Fluorometric Imaging Plate Reader (FLIPR) (FLIPR-TETRA™, Molecular Devices, Sunnyvale, Calif., US), and receptor activation was initiated by addition of 100 μl of a twofold concentrated agonist stock solution (to give the desired agonist end concentration when added to the 100 microliter assay buffer volume), which was prepared in assay buffer.
Fluorescence was continuously monitored for 20 seconds to give a signal baseline (averaged to give F0) prior to agonist addition and for 120 seconds after agonist addition. The change in signal divided by F0 gives ΔF/F0 indicated in the table, with ΔF being the maximum signal occurring within the 120 seconds minus the minimum signal (occurring within the 120 seconds after agonist addition.
All data was collected from at least two independent experiments each carried out in triplicate.
The obtained calcium signals were corrected for the response of cells expressing only the G Protein α subunit (Gα16-gustducin44) and normalized to the fluorescence of cells prior to the stimulus using ΔF/F0 (Fmax−Fmin/F0).
The intracellular calcium response following addition of sucralose was determined in HK293T cell line stably expressing Gα16-gustducin44 and transiently expressing TAS2R46 formed as described in example 2b.

- TAS2R46 ΔF/F0 (sucralose 0.3906 mM): 0.041
- TAS2R46 ΔF/F0 (sucralose 0.7813 mM): 0.038
- TAS2R46 ΔF/F0 (sucralose 1.5625 mM): 0.035
- TAS2R46 ΔF/F0 (sucralose 3.1250 mM): 0.036
- TAS2R46 ΔF/F0 (sucralose 6.2500 mM): 0.057
- TAS2R46 ΔF/F0 (sucralose 12.5000 mM): 0.075
- TAS2R46 ΔF/F0 (sucralose 25.0000 mM): 0.106
- TAS2R46 ΔF/F0 (sucralose 50.0000 mM): 0.171
- TAS2R46 ΔF/F0 (sucralose 100.0000 mM): 0.258
SMILES: OC[C@H]1O[C@H](O[C@]2(CCl)O[C@H](CCl)[C@@H](O)[C@@H]2O)[C@H](O)[C@@H](O)[C@H]1Cl [Sucralose, sucralose]
- calcium signaling in TAS2R46 cells, in words: significant concentration-dependent increase in calcium signaling
